Assay results published in the NIST ThermoML archive (doi:10.1016/j.jct.2016.01.028).
Numbers after ± are expanded uncertainties.

Assay: xn = mol fraction of the nth substance listed
Conditions: 102 kPa, Liquid; for speed of sound: Frequency=5 MHz, Single path-length method; for mass density: Vibrating tube method

CCCCC(=O)[O-].C[NH2+]CCO [2-hydroxy-N-methylethanaminium pentanoate] + O
Conditions	mass density, 318.15 K [kg/m3]	mass density, 323.15 K [kg/m3]	mass density, 328.15 K [kg/m3]	mass density, 333.15 K [kg/m3]	speed of sound, 318.15 K [m/s]	speed of sound, 323.15 K [m/s]	speed of sound, 328.15 K [m/s]	speed of sound, 333.15 K [m/s]
x1 = 0.0199	999.3 ± 4	995.8 ± 4	992.4 ± 4	988.9 ± 4	1642.2 ± 14	1641.4 ± 14	1640.6 ± 14	1639.8 ± 14
x1 = 0.05	1012.6 ± 4	1009.2 ± 4	1005.9 ± 4	1002.5 ± 4	1677.2 ± 14	1670 ± 14	1662.8 ± 14	1655.7 ± 14
x1 = 0.0988	1014.4 ± 4	1011.1 ± 4	1007.8 ± 4	1004.5 ± 4	1628.8 ± 14	1618.5 ± 14	1608.1 ± 14	1597.8 ± 14
x1 = 0.2023	1017.6 ± 4	1014.6 ± 4	1011.5 ± 4	1008.5 ± 4	1591.4 ± 14	1578 ± 14	1564.6 ± 14	1551.2 ± 14
x1 = 0.3	1016.1 ± 4	1012.9 ± 4	1009.8 ± 4	1006.7 ± 4	1575 ± 14	1560.4 ± 14	1545.7 ± 14	1531.1 ± 14
x1 = 0.4053	1012.7 ± 4	1009.5 ± 4	1006.4 ± 4	1003.2 ± 4	1551.2 ± 14	1536.7 ± 14	1522.2 ± 14	1507.7 ± 14
x1 = 0.5003	1008.3 ± 4	1005.1 ± 4	1002 ± 4	998.8 ± 4	1523.3 ± 14	1508.2 ± 14	1493.1 ± 14	1478.1 ± 14
x1 = 0.5993	1006.3 ± 4	1003.1 ± 4	999.9 ± 4	996.7 ± 4	1511.5 ± 14	1496.6 ± 14	1481.7 ± 14	1466.7 ± 14
x1 = 0.8061	1000.4 ± 4	997.2 ± 4	993.9 ± 4	990.7 ± 4	1480.6 ± 14	1465.3 ± 14	1450 ± 14	1434.6 ± 14
x1 = 1	996.3 ± 4	993.1 ± 4	989.9 ± 4	986.7 ± 4	1457 ± 14	1440 ± 14	1424.6 ± 14	1412.8 ± 14
